Results reported in PMC6199744, “Development of Chemical Proteomics for the Folateome and Analysis of the Kinetoplastid Folateome” (ACS Infectious Diseases, 2018).
Like-named read-outs stand apart in the source and are kept apart here.

Columns and labels:
Assay type in all cases: binding
[1] = molecular target: T1, HeLa cell extract proteins (Homo sapiens, UniProt P57088)
T1 construct: endogenous in cells; host or cells: HeLa cell extract
T1 sequence (P57088 1-247): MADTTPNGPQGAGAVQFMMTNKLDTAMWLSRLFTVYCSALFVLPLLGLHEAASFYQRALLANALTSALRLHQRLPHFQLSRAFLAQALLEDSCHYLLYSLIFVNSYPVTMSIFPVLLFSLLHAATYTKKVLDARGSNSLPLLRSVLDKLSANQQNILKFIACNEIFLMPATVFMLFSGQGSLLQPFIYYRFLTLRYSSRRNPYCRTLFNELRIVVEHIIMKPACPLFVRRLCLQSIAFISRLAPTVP

[2] = molecular target: T2, HeLa cell extract proteins (Homo sapiens, UniProt O00410)
T2 construct: endogenous in cells; host or cells: HeLa cell extract
T2 sequence (O00410 1-1097): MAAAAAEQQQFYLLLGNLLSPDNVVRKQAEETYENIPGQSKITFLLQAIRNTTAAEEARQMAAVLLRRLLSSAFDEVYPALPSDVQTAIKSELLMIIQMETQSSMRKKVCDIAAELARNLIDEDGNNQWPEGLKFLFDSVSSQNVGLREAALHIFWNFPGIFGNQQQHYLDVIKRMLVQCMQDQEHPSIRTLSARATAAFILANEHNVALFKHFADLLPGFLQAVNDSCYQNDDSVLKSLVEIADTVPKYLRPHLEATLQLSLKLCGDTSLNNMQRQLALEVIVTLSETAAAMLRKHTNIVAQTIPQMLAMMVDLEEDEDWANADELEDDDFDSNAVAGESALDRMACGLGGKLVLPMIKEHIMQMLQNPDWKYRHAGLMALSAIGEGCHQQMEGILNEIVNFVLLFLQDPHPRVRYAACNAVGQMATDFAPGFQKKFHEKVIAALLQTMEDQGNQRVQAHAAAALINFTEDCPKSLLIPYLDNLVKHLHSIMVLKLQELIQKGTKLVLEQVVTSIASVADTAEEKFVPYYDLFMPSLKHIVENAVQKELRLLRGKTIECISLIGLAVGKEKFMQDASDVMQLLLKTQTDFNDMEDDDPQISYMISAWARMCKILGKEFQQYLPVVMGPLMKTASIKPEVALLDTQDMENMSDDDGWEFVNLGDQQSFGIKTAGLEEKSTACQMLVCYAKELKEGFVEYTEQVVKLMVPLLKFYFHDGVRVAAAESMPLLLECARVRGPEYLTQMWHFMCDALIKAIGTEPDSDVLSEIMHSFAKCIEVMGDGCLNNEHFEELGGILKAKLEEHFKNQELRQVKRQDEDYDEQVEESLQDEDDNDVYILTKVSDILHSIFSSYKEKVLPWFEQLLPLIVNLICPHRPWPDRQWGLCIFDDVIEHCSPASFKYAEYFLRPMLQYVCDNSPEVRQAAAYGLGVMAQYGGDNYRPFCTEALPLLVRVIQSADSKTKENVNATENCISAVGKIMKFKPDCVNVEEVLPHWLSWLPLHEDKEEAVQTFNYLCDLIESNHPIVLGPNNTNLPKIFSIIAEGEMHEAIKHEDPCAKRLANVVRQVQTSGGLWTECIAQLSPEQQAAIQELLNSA

[3] = molecular target: T3, HeLa cell extract proteins (Homo sapiens, UniProt P04080)
T3 construct: endogenous in cells; host or cells: HeLa cell extract
T3 sequence (P04080 1-98): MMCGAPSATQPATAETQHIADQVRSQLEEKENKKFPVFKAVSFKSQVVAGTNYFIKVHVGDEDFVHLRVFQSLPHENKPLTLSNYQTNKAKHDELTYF

[4] = molecular target: T4, HeLa cell extract proteins (Homo sapiens, UniProt P55060)
T4 construct: endogenous in cells; host or cells: HeLa cell extract
T4 sequence (P55060 1-971): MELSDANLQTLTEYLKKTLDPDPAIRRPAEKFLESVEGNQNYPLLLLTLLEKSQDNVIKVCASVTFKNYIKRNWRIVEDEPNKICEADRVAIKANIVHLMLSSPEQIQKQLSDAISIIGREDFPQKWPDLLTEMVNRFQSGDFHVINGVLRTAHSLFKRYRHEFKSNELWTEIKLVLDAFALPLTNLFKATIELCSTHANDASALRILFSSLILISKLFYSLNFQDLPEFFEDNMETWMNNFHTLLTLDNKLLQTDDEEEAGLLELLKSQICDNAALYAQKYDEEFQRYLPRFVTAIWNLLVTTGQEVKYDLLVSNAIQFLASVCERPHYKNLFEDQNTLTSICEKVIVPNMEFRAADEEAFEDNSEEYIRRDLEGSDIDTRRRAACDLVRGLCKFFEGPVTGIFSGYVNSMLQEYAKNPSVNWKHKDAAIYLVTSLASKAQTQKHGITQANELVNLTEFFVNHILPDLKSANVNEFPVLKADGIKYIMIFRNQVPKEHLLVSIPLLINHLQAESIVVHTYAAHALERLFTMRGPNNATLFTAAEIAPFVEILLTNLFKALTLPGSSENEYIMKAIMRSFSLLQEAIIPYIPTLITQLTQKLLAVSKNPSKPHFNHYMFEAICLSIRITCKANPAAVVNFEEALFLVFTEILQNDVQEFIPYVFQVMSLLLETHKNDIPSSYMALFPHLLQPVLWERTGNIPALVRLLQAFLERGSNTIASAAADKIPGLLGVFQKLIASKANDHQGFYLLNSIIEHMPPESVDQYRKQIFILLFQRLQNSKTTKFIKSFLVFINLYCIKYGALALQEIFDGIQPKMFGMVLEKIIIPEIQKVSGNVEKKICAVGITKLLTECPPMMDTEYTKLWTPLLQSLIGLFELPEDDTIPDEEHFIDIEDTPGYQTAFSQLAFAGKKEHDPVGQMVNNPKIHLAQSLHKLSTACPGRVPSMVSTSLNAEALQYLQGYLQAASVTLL

[5] = molecular target: T5, HeLa cell extract proteins (Homo sapiens, UniProt P08579)
T5 construct: endogenous in cells; host or cells: HeLa cell extract

[6] = molecular target: T6, HeLa cell extract proteins (Homo sapiens, UniProt Q9H583)
T6 construct: endogenous in cells; host or cells: HeLa cell extract

[7] = molecular target: T7, HeLa cell extract proteins (Homo sapiens, UniProt Q00325)
T7 construct: endogenous in cells; host or cells: HeLa cell extract
T7 sequence (Q00325 50-362): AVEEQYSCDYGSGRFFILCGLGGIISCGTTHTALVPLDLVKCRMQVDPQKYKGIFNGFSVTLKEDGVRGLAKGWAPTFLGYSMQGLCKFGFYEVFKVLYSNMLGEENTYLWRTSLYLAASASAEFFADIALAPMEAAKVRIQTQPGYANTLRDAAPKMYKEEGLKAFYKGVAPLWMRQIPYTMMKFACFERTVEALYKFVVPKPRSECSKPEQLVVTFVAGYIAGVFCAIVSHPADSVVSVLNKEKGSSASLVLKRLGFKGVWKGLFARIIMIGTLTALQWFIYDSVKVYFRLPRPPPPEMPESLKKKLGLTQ

T6 sequence (Q9H583 whole entry): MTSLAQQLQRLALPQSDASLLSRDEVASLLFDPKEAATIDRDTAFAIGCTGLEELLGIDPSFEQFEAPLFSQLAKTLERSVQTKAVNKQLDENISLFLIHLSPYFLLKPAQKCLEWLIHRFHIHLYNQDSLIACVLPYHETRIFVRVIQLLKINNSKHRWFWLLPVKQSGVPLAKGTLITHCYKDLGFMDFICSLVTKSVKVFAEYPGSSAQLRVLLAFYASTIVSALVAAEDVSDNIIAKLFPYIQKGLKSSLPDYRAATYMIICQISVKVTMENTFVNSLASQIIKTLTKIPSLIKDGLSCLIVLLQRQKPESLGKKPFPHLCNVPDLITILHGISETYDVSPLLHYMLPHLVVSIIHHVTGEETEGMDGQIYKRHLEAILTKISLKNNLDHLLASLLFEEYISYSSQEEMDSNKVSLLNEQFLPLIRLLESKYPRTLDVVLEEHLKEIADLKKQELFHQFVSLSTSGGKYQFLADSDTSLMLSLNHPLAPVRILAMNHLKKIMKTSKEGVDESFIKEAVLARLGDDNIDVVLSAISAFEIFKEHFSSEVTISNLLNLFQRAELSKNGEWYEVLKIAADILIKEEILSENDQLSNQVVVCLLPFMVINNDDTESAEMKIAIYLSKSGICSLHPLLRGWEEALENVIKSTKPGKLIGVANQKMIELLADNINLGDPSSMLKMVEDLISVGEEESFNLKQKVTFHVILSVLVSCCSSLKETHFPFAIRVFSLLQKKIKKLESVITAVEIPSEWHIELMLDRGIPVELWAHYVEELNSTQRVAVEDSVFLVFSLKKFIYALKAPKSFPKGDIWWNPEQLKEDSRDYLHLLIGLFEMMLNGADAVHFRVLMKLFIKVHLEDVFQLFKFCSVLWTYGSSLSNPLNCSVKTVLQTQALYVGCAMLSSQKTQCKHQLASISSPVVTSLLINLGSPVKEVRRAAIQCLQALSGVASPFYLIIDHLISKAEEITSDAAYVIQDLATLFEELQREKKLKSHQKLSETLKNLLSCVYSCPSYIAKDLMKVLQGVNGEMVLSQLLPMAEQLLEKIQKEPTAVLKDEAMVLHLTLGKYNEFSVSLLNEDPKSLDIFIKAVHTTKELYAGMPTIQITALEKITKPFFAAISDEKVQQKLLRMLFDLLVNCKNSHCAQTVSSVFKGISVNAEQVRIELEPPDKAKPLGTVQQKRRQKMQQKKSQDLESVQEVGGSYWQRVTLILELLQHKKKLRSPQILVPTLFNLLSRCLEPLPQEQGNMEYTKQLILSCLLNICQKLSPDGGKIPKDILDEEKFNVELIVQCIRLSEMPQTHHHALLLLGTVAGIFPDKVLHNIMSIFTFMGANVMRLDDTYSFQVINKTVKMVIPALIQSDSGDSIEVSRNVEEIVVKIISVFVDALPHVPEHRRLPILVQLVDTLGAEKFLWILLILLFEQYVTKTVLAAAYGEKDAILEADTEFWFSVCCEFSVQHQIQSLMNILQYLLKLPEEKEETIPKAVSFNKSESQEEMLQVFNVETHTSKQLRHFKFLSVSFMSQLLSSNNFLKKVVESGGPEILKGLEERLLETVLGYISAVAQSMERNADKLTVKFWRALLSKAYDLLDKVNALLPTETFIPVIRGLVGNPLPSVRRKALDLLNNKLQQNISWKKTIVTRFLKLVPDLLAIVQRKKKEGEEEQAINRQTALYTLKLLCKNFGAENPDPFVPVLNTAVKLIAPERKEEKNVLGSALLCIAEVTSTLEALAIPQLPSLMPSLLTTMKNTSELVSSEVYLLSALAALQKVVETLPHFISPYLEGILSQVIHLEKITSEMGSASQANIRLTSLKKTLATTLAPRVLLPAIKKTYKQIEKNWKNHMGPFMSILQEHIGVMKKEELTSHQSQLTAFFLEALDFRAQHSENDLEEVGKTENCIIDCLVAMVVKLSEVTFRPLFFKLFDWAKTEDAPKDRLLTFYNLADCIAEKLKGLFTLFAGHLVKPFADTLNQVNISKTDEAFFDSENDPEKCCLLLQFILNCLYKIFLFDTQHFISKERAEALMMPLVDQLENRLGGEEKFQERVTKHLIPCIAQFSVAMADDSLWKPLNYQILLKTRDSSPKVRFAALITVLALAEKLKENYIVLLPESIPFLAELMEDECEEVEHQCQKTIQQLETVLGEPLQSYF
T5 sequence (P08579 whole entry): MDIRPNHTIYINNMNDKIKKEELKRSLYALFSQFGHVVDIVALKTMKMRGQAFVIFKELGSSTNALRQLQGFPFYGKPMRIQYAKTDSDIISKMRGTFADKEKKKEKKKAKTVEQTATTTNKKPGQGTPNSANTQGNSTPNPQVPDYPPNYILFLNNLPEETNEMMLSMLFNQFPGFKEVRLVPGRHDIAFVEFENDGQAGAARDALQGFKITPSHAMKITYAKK

Row | SMILES | fold changes relative to vehicle control ([1]; captured protein TMEM33, HeLa) | fold changes relative to vehicle control ([2]; protein IPO5, HeLa) | fold changes relative to vehicle control ([3]; HeLa, protein CSTB) | fold changes relative to vehicle control ([4]; protein CSE1L, HeLa) | fold changes relative to vehicle control ([5]; HeLa, protein SNRPB2) | fold changes relative to vehicle control ([6]; HeLa, protein HEATR1) | fold changes relative to vehicle control ([7]; HeLa, protein SLC25A3) | fold changes relative to vehicle control ([1]; HeLa, protein TMEM33) | fold changes relative to vehicle control ([2]; HeLa, protein IPO5) | fold changes relative to vehicle control [1] | fold changes relative to vehicle control [2] | fold changes relative to vehicle control [3] | fold changes relative to vehicle control [4] | fold changes relative to vehicle control [5] | fold changes relative to vehicle control [6] | fold changes relative to vehicle control [7]
1 | CCCCCCOc1cccc(Cc2cnc(N)nc2N)c1 [compound 2] | 0.93 | 1.27 | 0.99 | 1.52 | 1.43 | 1.2 | 0.96 |  |  |  |  |  |  |  |  | 
2 | NCCOCCOCC(=O)Nc1nc2ncc(CNc3ccc(C(=O)NC(CCC(=O)O)C(=O)O)cc3)nc2c(=O)[nH]1 (stereo not shown) [compound 6] |  |  | 1.29 | 1.09 | 0.93 | 1.09 | 1.04 | 1 | 0.99 |  |  |  |  |  |  | 
3 | CCCCCCOc1ccc(Cc2cnc(N)nc2N)cc1 [compound 1] | 0.86 | 0.99 | 1.08 | 1.02 | 1.22 | 1.14 | 0.98 |  |  |  |  |  |  |  |  | 
4 | Nc1nc2c(c(=O)[nH]1)N(C=O)C(CNc1ccc(C(=O)N[C@@H](CCC(=O)O)C(=O)O)cc1)CN2 (stereo partly shown) [LEU, leucovorin] |  |  | 1.07 | 0.94 | 1 | 0.94 | 0.98 | 0.88 | 0.93 |  |  |  |  |  |  | 
5 | NCCCNc1ccc(C(=O)NC(CCC(=O)O)C(=O)O)cc1 (stereo not shown) [compound 7] |  |  | 1.24 | 1.04 | 0.77 | 1.04 | 1.11 | 1.03 | 0.94 |  |  |  |  |  |  | 
6 | Nc1nc2[nH]cc(CCc3ccc(C(=O)N[C@@H](CCC(=O)O)C(=O)O)cc3)c2c(=O)[nH]1 [PTX, pemetrexed] |  |  |  |  |  |  |  |  |  | 0.96 | 0.91 | 1.26 | 0.88 | 0.98 | 0.98 | 0.98
7 | Nc1nc2cccc(-c3ccccc3)c2n1Cc1ccc(Cl)c(Cl)c1 [compound 3] | 1.14 | 1.03 | 1.17 | 1.06 | 0.76 | 1.12 | 1 |  |  |  |  |  |  |  |  | 
